From ChEMBL document CHEMBL2440083 (J Med Chem, 2013)

Assays:
Mu-type opioid receptor [1] = biological target: T1, Mu-type opioid receptor (Homo sapiens, UniProt P35372); assay: Agonist activity at human mu opioid receptor expressed in HEK293 cells assessed as inhibition of forskolin-stimulated cAMP accumulation by fluorescence assay; format: functional, cell-based
Mu-type opioid receptor [2] = biological target: T1, Mu-type opioid receptor; assay: Agonist activity at human mu opioid receptor expressed in HEK293 cells assessed as beta-arrestin recruitment by chemiluminescence assay; format: cell-based
[3] = Cardiotoxicity in isolated rabbit left ventricular wedge model assessed as torsade de pointes score up to 30 uM; format: toxicity, tissue-based, Oryctolagus cuniculus, Heart left ventricle
[4] = Cardiotoxicity in isolated rabbit left ventricular wedge model assessed as proarrhyhmic event; format: toxicity, tissue-based, Oryctolagus cuniculus, Heart left ventricle
Cynomolgus monkey [5] = assay: Cardiotoxicity in cynomolgus monkey assessed as QT interval; format: toxicity, organism-based, Macaca fascicularis; settings: in vivo
Cynomolgus monkey [6] = assay: Cardiotoxicity in cynomolgus monkey assessed as QTc interval; format: toxicity, organism-based, Macaca fascicularis; settings: in vivo
Cynomolgus monkey [7] = assay: Cardiotoxicity in cynomolgus monkey assessed as PR interval; format: toxicity, organism-based, Macaca fascicularis; settings: in vivo
Cynomolgus monkey [8] = assay: Cardiotoxicity in cynomolgus monkey assessed as QRS duration; format: toxicity, organism-based, Macaca fascicularis; settings: in vivo
[9] = Cardiotoxicity in isolated rabbit left ventricular wedge model assessed as increase in Tp-e interval at 1 uM; format: toxicity, tissue-based, Oryctolagus cuniculus, Heart left ventricle
[10] = Cardiotoxicity in isolated rabbit left ventricular wedge model assessed as increase in QT interval at 0.3 uM; format: toxicity, tissue-based, Oryctolagus cuniculus, Heart left ventricle
[11] = biological target: Voltage-dependent L-type calcium channel subunit alpha-1C (Homo sapiens, UniProt Q13936); assay: Inhibition of human Cav 1.2 ion channel expressed in HEK293 cells by whole-cell patch clamp technique; format: cell-based
[12] = biological target: T2, Sodium channel protein type 5 subunit alpha (Homo sapiens, UniProt Q14524); assay: Inhibition of human Nav 1.5 tonic ion channel expressed in HEK293 cells by whole-cell patch clamp technique; format: cell-based
[13] = biological target: T2, Sodium channel protein type 5 subunit alpha; assay: Inhibition of human Nav 1.5 phasic ion channel expressed in HEK293 cells by whole-cell patch clamp technique; format: cell-based
[14] = biological target: Voltage-gated inwardly rectifying potassium channel KCNH2 (Homo sapiens, UniProt Q12809); assay: Inhibition of human ERG channel expressed in HEK293 cells by whole-cell patch clamp technique; format: cell-based
[15] = biological target: Delta-type opioid receptor (Homo sapiens, UniProt P41143); assay: Agonist activity at human delta opioid receptor expressed in HEK293 cells assessed as inhibition of forskolin-stimulated cAMP accumulation by fluorescence assay; format: functional, cell-based
[16] = biological target: Kappa-type opioid receptor (Homo sapiens, UniProt P41145); assay: Agonist activity at human kappa opioid receptor expressed in HEK293 cells assessed as inhibition of forskolin-stimulated cAMP accumulation by fluorescence assay; format: functional, cell-based
Mus musculus [17] = assay: Analgesic effect in mouse at 6 mg/kg, sc after 30 mins by hot plate assay; format: functional; settings: route subcutaneous
[18] = Cardiotoxicity in isolated rabbit left ventricular wedge model assessed as torsade de pointes score at 0.3 to 1 uM; format: toxicity, tissue-based, Oryctolagus cuniculus, Heart left ventricle
[19] = Cardiotoxicity in isolated rabbit left ventricular wedge model assessed as increase in QT interval at 1 uM; format: toxicity, tissue-based, Oryctolagus cuniculus, Heart left ventricle
HEK293 [20] = assay: Selectivity ratio of EC50 for human mu opioid receptor expressed in HEK293 cells over EC50 for human delta opioid receptor expressed in HEK293 cells; format: cell-based
HEK293 [21] = assay: Selectivity ratio of EC50 for human mu opioid receptor expressed in HEK293 cells over EC50 for human kappa opioid receptor expressed in HEK293 cells; format: cell-based
Mus musculus [22] = assay: Toxicity in mouse fecal boli accumulation model assessed as fecal boli production at equianalgesic dose, sc after 4 hrs relative to morphine; format: organism-based; settings: in vivo
Mus musculus [23] = assay: Toxicity in mouse glass bead model assessed as retention time of colonic motility at 3 mg/kg, sc; format: organism-based, Colon; parameters: dose 3 mg/kg, route subcutaneous; settings: in vivo
Mus musculus [24] = assay: Analgesic effect in mouse at 3 mg/kg, sc after 30 mins by hot plate assay; format: functional; settings: route subcutaneous
Mus musculus [25] = assay: Analgesic effect in sc dosed mouse by hot plate assay; format: functional

T2 sequence (Q14524 whole entry): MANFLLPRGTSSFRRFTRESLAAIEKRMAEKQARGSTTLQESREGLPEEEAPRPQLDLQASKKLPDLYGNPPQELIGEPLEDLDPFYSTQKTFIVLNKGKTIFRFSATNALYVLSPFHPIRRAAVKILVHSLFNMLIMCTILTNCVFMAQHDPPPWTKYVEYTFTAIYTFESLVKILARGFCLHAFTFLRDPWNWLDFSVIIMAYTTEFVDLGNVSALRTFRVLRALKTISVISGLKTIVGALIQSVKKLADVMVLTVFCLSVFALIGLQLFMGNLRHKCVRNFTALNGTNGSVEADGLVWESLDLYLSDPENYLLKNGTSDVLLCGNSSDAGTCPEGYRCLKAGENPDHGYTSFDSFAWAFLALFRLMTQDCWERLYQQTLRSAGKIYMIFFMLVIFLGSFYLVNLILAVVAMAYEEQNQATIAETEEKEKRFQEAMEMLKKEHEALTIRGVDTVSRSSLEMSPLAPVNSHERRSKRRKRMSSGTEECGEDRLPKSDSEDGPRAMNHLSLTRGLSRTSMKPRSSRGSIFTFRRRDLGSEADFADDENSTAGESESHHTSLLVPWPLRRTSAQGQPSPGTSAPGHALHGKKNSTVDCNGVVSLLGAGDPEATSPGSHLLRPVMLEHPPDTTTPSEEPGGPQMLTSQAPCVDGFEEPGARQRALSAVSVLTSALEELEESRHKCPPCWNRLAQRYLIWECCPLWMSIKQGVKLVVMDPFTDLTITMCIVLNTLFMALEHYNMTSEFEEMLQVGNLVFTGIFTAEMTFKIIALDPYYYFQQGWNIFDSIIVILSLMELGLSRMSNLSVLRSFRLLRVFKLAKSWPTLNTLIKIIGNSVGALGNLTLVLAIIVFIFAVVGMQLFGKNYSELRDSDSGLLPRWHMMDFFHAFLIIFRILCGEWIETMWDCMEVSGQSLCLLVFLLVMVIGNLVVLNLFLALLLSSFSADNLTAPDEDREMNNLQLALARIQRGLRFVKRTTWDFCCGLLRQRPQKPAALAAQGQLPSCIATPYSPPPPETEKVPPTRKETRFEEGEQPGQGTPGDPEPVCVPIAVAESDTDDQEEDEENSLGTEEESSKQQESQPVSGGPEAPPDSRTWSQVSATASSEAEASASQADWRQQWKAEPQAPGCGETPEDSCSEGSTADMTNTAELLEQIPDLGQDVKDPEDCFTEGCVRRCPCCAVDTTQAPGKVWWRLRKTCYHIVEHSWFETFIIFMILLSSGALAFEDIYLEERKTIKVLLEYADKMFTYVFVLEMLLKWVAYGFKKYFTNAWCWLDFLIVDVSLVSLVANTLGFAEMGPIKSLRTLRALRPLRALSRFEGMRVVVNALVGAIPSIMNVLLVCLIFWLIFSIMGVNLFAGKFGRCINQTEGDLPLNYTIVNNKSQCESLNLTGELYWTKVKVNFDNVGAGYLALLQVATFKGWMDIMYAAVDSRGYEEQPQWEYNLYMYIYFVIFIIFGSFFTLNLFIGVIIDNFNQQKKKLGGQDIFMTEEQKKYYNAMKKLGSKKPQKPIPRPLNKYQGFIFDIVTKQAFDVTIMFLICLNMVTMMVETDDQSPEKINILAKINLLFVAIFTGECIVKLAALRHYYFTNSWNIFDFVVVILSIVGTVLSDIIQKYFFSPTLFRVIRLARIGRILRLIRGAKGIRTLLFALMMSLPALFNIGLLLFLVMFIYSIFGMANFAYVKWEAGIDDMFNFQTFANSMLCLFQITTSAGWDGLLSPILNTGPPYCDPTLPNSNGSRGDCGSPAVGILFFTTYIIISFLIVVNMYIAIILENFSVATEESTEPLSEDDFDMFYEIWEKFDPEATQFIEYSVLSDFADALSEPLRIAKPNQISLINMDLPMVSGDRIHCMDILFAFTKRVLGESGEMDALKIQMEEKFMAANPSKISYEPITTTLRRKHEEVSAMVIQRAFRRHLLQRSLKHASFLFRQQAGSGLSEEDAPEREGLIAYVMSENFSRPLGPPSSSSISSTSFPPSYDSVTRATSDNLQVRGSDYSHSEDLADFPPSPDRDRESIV
T1 sequence (P35372 whole entry): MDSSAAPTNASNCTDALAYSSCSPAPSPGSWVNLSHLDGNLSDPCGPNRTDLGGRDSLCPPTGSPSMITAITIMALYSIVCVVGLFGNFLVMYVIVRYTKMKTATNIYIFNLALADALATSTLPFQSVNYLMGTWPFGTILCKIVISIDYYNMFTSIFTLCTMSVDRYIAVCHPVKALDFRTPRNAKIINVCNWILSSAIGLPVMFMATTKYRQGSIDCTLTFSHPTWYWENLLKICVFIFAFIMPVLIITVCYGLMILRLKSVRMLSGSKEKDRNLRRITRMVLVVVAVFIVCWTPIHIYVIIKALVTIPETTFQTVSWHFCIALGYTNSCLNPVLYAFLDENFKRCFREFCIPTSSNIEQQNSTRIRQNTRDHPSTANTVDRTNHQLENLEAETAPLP
Chain of Voltage-dependent L-type calcium channel subunit alpha-1C (Q13936 whole entry): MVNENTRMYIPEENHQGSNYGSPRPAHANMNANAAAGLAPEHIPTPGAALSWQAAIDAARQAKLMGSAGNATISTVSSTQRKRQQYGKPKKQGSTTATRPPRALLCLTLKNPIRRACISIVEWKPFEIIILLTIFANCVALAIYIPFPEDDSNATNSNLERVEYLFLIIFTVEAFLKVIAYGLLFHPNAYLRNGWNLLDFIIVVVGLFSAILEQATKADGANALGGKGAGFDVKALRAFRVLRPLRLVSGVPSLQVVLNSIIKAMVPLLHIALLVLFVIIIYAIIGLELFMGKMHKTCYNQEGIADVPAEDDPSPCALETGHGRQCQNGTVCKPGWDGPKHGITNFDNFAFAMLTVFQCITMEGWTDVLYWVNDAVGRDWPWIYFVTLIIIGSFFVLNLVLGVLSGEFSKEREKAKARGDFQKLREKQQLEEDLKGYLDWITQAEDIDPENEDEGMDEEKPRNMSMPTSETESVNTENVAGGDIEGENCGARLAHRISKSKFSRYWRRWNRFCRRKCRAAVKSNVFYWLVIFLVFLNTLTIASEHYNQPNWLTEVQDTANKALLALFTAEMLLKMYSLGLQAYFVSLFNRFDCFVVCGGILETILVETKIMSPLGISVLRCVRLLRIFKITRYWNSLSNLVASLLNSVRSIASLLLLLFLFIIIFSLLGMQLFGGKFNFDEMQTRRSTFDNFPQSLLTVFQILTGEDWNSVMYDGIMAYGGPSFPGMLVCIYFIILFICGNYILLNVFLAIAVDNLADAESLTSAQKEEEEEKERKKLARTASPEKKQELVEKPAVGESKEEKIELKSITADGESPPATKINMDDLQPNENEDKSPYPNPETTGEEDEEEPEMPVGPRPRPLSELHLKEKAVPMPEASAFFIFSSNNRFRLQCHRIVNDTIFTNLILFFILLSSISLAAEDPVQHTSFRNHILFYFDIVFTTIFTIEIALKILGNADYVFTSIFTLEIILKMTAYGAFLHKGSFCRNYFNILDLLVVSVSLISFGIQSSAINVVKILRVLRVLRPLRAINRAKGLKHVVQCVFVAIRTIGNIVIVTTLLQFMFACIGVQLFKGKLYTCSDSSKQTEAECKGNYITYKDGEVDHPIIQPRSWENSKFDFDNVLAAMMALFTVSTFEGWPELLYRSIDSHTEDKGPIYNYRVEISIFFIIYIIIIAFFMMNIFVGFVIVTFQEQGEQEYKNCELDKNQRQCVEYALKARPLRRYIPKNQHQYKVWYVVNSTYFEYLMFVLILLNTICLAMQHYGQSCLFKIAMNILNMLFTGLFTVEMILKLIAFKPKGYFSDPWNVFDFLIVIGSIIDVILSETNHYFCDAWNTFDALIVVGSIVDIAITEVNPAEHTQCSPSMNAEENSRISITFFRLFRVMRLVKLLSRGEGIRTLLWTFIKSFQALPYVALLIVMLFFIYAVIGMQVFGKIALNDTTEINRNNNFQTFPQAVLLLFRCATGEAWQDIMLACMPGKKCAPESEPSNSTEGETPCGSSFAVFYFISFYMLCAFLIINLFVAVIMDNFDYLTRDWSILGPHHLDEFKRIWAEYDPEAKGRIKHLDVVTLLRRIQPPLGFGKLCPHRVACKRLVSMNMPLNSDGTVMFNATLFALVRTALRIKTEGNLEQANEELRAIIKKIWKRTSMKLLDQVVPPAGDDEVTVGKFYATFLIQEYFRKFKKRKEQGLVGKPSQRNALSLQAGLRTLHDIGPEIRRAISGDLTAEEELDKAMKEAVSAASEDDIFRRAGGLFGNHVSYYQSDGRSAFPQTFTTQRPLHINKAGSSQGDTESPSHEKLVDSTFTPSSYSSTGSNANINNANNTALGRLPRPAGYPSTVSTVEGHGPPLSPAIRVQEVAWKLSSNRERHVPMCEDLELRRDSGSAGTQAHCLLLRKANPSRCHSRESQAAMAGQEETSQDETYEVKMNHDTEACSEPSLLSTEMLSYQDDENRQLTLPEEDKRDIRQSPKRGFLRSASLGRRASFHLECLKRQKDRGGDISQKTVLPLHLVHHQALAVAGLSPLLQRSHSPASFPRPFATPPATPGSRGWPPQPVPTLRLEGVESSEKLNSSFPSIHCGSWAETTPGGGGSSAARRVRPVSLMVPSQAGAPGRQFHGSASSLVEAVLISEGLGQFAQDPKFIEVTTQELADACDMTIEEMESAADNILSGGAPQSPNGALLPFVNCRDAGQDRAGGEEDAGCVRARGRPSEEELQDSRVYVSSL
Chain of Delta-type opioid receptor (P41143 whole entry): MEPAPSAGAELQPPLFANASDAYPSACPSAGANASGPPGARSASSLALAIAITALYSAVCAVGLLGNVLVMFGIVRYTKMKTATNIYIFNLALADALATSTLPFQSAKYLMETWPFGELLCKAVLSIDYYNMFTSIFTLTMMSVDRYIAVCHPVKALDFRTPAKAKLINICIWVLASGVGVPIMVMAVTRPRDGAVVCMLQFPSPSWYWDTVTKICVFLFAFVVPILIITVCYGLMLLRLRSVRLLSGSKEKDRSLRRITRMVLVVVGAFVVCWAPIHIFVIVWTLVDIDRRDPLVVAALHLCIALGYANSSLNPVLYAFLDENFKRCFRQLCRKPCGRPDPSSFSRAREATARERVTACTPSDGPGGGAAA

| SMILES | EC50 (Mu-type opioid receptor [1]) [nM] | EC50 (Mu-type opioid receptor [2]) [nM] | other results |
| --- | --- | --- | --- |
| C[C@@H](NCC[C@@]1(c2ccc(F)cc2)CCOC2(CCCC2)C1)c1ccccc1 | 1000 |  |  |
| c1ccc([C@]2(CCNCc3ccc4ccccc4c3)CCOC3(CCCC3)C2)nc1 | 158 | 20000 |  |
| Clc1cccc(CNCC[C@@]2(c3ccccn3)CCOC3(CCCC3)C2)c1 | 2.51 | 50.1 |  |
| Cc1ccc(CNCC[C@@]2(c3ccccn3)CCOC3(CCCC3)C2)s1 | 15.8 |  |  |
| Cc1cc(CNCC[C@@]2(c3ccccn3)CCOC3(CCCC3)C2)oc1C | 31.6 | 316 |  |
| CCC1(CC)CC(CCNCc2ccccc2)(c2ccc(F)cc2)CCO1 (stereo not drawn) | 251 | 6310 |  |
| COc1ccsc1CNCC[C@@]1(c2ccccn2)CCOC2(CCCC2)C1 [OLICERIDINE] |  |  | Activity [3]: Non-toxic; Activity [4]: Non-toxic; Activity (Cynomolgus monkey [5]): Non-toxic; Activity (Cynomolgus monkey [6]): Non-toxic; Activity (Cynomolgus monkey [7]): Non-toxic; Activity (Cynomolgus monkey [8]): Non-toxic; Activity [9]: 7%; Activity [10]: 3%; IC50 [11]: 36000 nM; IC50 [12]: 16500 nM; IC50 [13]: 4700 nM; IC50 [14]: 6200 nM; EC50 [15]: 2800 nM; EC50 [16]: 1400 nM |
| Fc1ccc([C@]2(CCNCc3ccccc3)CCOC3(CCCC3)C2)cc1 | 31.6 | 398 |  |
| CC[C@]1(C)CC(CCNCc2ccccc2O)(c2ccc(F)cc2)CCO1 (stereo partly drawn) | 39.8 | 1580 |  |
| Fc1ccc([C@@]2(CCNCc3ccccc3)CCOC3(CCCC3)C2)cc1 | 501 | 7940 |  |
| Cc1cc(C)c(CNCC[C@@]2(c3ccccn3)CCOC3(CCCC3)C2)s1 | 25.1 | 631 |  |
| Cc1csc(CNCC[C@@]2(c3ccccn3)CCOC3(CCCC3)C2)c1 | 5.01 | 398 |  |
| c1ccc(CNCCC2(c3ccccn3)CCOC3(CCCC3)C2)cc1 (racemic) | 50.1 | 200 |  |
| Cc1ccsc1CNCC[C@@]1(c2ccccn2)CCOC2(CCCC2)C1 | 6.31 |  |  |
| CC(C)(NCC[C@@]1(c2ccc(F)cc2)CCOC2(CCCC2)C1)c1ccccc1 | 3160 |  |  |
| c1ccc([C@]2(CCNCc3ccncc3)CCOC3(CCCC3)C2)nc1 | 1260 |  |  |
| c1ccc([C@]2(CCNCc3cnccn3)CCOC3(CCCC3)C2)nc1 | 631 |  |  |
| CC1(C)CC(CCNCc2ccccc2)(c2ccc(F)cc2)CCO1 (stereo not drawn) | 1580 |  |  |

| SMILES | EC50 (Mu-type opioid receptor [1]) [nM] | EC50 (Mu-type opioid receptor [2]) [nM] | other results |
| --- | --- | --- | --- |
| CN1CC[C@]23c4c5ccc(O)c4O[C@H]2[C@@H](O)C=C[C@H]3[C@H]1C5 [MORPHINE] |  |  | MPE (Mus musculus [17]): 69% |
| c1ccc([C@]2(CCNCC3CCCC3)CCOC3(CCCC3)C2)nc1 | 31.6 |  |  |
| c1ccc([C@]2(CCNCc3ccsc3)CCOC3(CCCC3)C2)nc1 | 12.6 | 63.1 |  |
| Fc1ccc(C2(CCNCc3ccccc3)CCOC3(CCCC3)C2)cc1 (racemic) | 79.4 | 631 |  |
| c1ccc(CNCC[C@]2(c3ccccn3)CCOC3(CCCC3)C2)cc1 | 631 | 15800 |  |
| CC[C@]1(C)CC(CCNCc2ccccc2O)(c2ccc(C)cc2)CCO1 (stereo partly drawn) | 501 | 2000 |  |
| c1ccc(CNCC[C@@]2(c3ccccn3)CCOC3(CCCC3)C2)cc1 | 12.6 | 158 |  |
| C[C@H](NCC[C@@]1(c2ccc(F)cc2)CCOC2(CCCC2)C1)c1ccccc1 | 501 |  |  |
| c1ccc([C@]2(CCNCc3cccnc3)CCOC3(CCCC3)C2)nc1 | 200 |  |  |
| c1ccc([C@]2(CCNCc3cccs3)CCOC3(CCCC3)C2)nc1 | 15.8 | 251 | Activity [18]: Toxic; Activity [19]: 40%; Activity [9]: 65%; IC50 [11]: > 100000 nM; IC50 [12]: 20000 nM; IC50 [13]: 9000 nM; IC50 [14]: 2300 nM; Ratio EC50 (HEK293 [20]): 56; Ratio EC50 (HEK293 [21]): 71; EC50 [15]: 750 nM; EC50 [16]: 900 nM; fold change (FC) (Mus musculus [22]): 2; Retention_time (Mus musculus [23]): 65 min; MPE (Mus musculus [24]): 79%; ED50 (Mus musculus [25]): 1.1 mg/kg |
| Fc1ccc(C2(CCNCc3ccccc3)CCOC3(CCCCC3)C2)cc1 (stereo not drawn) | 398 | 7940 |  |
| Cc1ccc(C2(CCNCc3ccccc3O)CCOCC2)cc1 | 10000 |  |  |
| c1ccc([C@]2(CCNCc3ccncn3)CCOC3(CCCC3)C2)nc1 | 794 | 2000 |  |
| Cc1ccc(CNCC[C@@]2(c3ccccn3)CCOC3(CCCC3)C2)o1 | 50.1 | 200 |  |
| c1ccc(CNCC[C@@]2(c3ccccn3)CCOC3(CCCC3)C2)nc1 | 158 |  |  |
| Cc1cc(CNCC[C@@]2(c3ccccn3)CCOC3(CCCC3)C2)sc1C | 5.01 | 501 |  |
| Clc1ccccc1CNCC[C@@]1(c2ccccn2)CCOC2(CCCC2)C1 | 10 |  |  |
